Entries after “also recorded” stand apart in the source; their conditions may differ.
Key:
Assay type in all cases: physicochemical
[1] = Speciation plot calculation of solution pH (FIG. 5, from experimentally determined pKas); details: according to speciation plot FIG. 5; 0.5 M solution
Excerpt: A pharmaceutically acceptable salt of a drug substance is one that is chemically stable and can be used in a pharmaceutical composition. Unlike simple aromatic hydrocarbons, thymodepressin is a dipeptide with multi-functional groups. The dipeptide D-isoglutamyl-D-tryptophan has an alpha amine, two carboxylic acids and an indole nitrogen within the same molecule. An ideal salt should be one that has a solution pH close to about 7 and in the low basic pH range. Through investigations in our laboratory, in the search for a novel salt to address the shortcomings of the disodium salt of D-isoglutamyl-D-tryptophan, the speciation plot (FIG. 5) was used to determine salts with ideal solution pH and solubility that are suitable for pharmaceutical formulations. FIG. 5 is a speciation plot of H-D-iGlu-D-Trp-OH from pH 0 to 12 using experimentally determined pKas. In FIG. 5, LH2=H-D-iGlu-D-Trp-OH, LH=mono carboxylic acid salt, L=dicarboxylic acid salt, and LH3=acid addition salt of H-D-iGlu-D-Trp-OH. The X axis provides the pH of the solution, whereas the Y axis reports the amount of the species present at a particular pH. From our practical experience, we use 6 ml of water per gm of H-D-iGlu-D-Trp-OH for isolation purposes, which corresponds to a concentration of 0.5 M solution.
According to the speciation plot calculation shown in FIG. 5, the diacid form has a pH of about 2.7 to about 3 in solution. The metal salt of formula I wherein M is potassium or lithium; the divalent salt of formula II wherein B is calcium or magnesium has a solution pH close to about 7.
We have applied the speciation plot (FIG. 5) to compute the pH range of the salt forms of the dipeptide H-D-iGlu-D-Trp-OH. […] This is particular ideal for liquid formulation, sublingual tablets, nasal drops and sprays.

[2] = Percent crystallinity by X-ray powder diffraction
Excerpt: The overall crystallinity measured by means of the XRPD technique provides additional helpful information for pharmaceutical materials that contain some amorphous material formed during synthetic procedure. It is also a valuable measure for control of long-term changes in the crystalline materials. Although not related to any structural and compositional features, the measured “percent crystallinity” may be a good indicator for the stability of a particular material as a function of time.
The percent crystallinity is commonly measured as a ratio between the diffraction portion from the crystalline part of the sample, IC, and the total diffraction from the same sample, IC+B. The values of CC can be obtained after an appropriate subtraction of the scattering portion from the background, IB.
For such kind of analyses, the diffraction is measured as total area under the profile of: • the whole pattern as it is collected (one may correct for the air scattering)—ITOTAL. • the peaks only (IC) after subtraction of the background (correction for the air scattering), • the background only with correction for air scattering—(IB).
However, in this study, due to the technical problems with the D5000 point-detector diffraction system, all the samples were analyzed on a D8 system, equipped with an area, 2D detector, and the above-mentioned approach could not be applied. Therefore, another technique has been developed for measuring the crystallinity of samples analyzed on such system. Only a narrow part of the 2D diffraction image is chosen with a single peak at the centre and a neighbour area where the background will be measured.
All samples were measured for calculation of their crystallinity using a narrow range of 21°-25° with a strongest reflection at […]. The background was subtracted as linear, and an empirical correlation coefficient of 2.5 was applied.

[3] = Hygroscopicity of the solid salt in air (laboratory observation); details: solid (freeze-dried / amorphous) salt

magnesium salt of D-isoglutamyl-D-tryptophan (1:2) [Example 5]
pH in solution [1]: about 7

calcium salt of D-isoglutamyl-D-tryptophan (1:2) [Example 7]
% crystallinity ([2]; XRPD, D8 system with 2D detector, not absolute values, listed as Example 8): 18-20% | % crystallinity ([2]; XRPD, D8 system with 2D detector, not absolute values, listed as H-D-iGlu-D-Trp-OH calcium (2:1)): less than 67% | % crystallinity ([2]; XRPD, D8 system with 2D detector; not absolute values; listed as calcium salt of thymodepressin [1:2)): ≤ 67% | pH in solution [1]: about 7

disodium salt of D-isoglutamyl-D-tryptophan
hygroscopicity of the solid [3]: extremely hygroscopic turning into a gel in a matter of minutes in air; also recorded: hygroscopic and very difficult to handle | hygroscopicity of the solid ([3]; listed as disodium salt): extremely hygroscopic and very difficult to weigh | pH in solution [1]: above 9.0

lithium salt of D-isoglutamyl-D-tryptophan (1:1) [Example 3A]
pH in solution [1]: about 7

potassium salt of D-isoglutamyl-D-tryptophan (1:1) [Example 1]
pH in solution [1]: about 7

Reference: US20150225341A1, “PHARMACEUTICALLY ACCEPTABLE SALTS OF THYMODEPRESSIN AND PROCESSES FOR THEIR MANUFACTURE” (APOTEX TECHNOLOGIES INC., priority 2014, published 2015)
